Results published in ChEMBL document CHEMBL1201862, “PubChem BioAssay data set” (2004).
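Following 48 hours of exposure in 96-well plates, responses at five concentrations were used to interpolate endpoints linearly. The concentration for 50% growth inhibition is given as GI50.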 Active and inactive are the calls of the source. Rule as the data show it: active = GI50 up to about 1.1 µM and inactive = higher. Where a SMILES comes first, the peptide text is derived from it.

Key:
Experiment in all cases: DTP human tumour cell line panel, 48 h
[1] = tested on: DU-145
[2] = tested on: HOP-92
[3] = tested on: K562
[4] = tested on: UACC-257
[5] = tested on: UO-31
[6] = tested on: SK-MEL-28
[7] = tested on: UACC-62
[8] = tested on: MDA-N
[9] = tested on: HCC 2998
[10] = tested on: SK-MEL-5
[11] = tested on: U-251
[12] = tested on: OVCAR-4
[13] = tested on: NCI-H460
[14] = tested on: MOLT-4
[15] = tested on: HL-60
[16] = tested on: SF-539
[17] = tested on: Hs-578T

Measured: GI50

COc1ccc(OC)c2c(C)ccnc12
inactive: [1] 24.1 µM | [2] 18.6 µM | [3] > 37.7 µM | [4] 33.7 µM | [5] 6.78 µM | [6] 36.6 µM | [7] 25.3 µM | [8] 26.3 µM | [9] > 95.5 µM | [10] 22.2 µM | [11] 16.4 µM | [12] 9.77 µM | [13] 21.7 µM

CC1(C)COC(c2cccc(C(=O)c3ccccc3)c2)=N1
inactive: [14] 24.5 µM | [1] 75.7 µM | [2] 25.9 µM | [15] 18.6 µM | [3] 36.2 µM | [4] 26.2 µM | [5] 29.1 µM | [6] 42.8 µM | [7] 41.9 µM | [8] 41 µM | [9] 57.9 µM | [10] 17.1 µM | [11] 70 µM | [12] 31 µM | [13] 59.4 µM

CC(OC(=O)NCn1cc(-c2ccccc2)nn1)c1ccccc1 (configuration not stated)
inactive: [14] 20.8 µM | [1] 42.1 µM | [2] 56.2 µM | [15] 27.8 µM | [16] 38.9 µM | [3] 31.2 µM | [4] 35.1 µM | [6] 97.9 µM | [9] 39.2 µM | [10] 17.3 µM | [11] 45.7 µM | [12] > 10 µM | [13] 46.5 µM

NC(=O)C1CCCN1C(=O)C(N)Cc1ccccc1 (stereo not drawn) (H-Phe-Pro-NH2; configuration not given here)
inactive: [14] > 100 µM | [1] > 100 µM | [15] > 100 µM | [3] > 100 µM | [4] > 10 µM | [5] > 100 µM | [6] > 100 µM | [7] > 100 µM | [8] > 100 µM | [9] > 100 µM | [10] > 100 µM | [11] > 100 µM | [12] > 100 µM | [13] > 100 µM

O=c1oc(C(C(F)(F)F)C(F)(F)F)nc2ccccc12
inactive: [14] > 100 µM | [2] > 100 µM | [15] > 100 µM | [16] > 100 µM | [3] > 100 µM | [4] > 100 µM | [5] > 100 µM | [6] > 100 µM | [9] > 100 µM | [10] > 100 µM | [11] > 100 µM | [12] > 100 µM | [13] > 100 µM

COc1ccccc1N1C(=O)CSC1c1cccc(Oc2ccccc2)c1 (configuration not stated)
inactive: [14] 29.9 µM | [1] 18.7 µM | [2] 12.7 µM | [15] 20.9 µM | [16] 17.2 µM | [3] 32.8 µM | [4] 16.7 µM | [5] 17.8 µM | [6] 17.8 µM | [7] 14.9 µM | [10] 16.3 µM | [11] 17 µM | [12] 18.5 µM | [13] 18.2 µM | [17] 20.9 µM

CCOc1ccc(/C=C2\N=C(c3ccccc3)OC2=O)cc1
inactive: [14] 8.71 µM | [2] > 100 µM | [15] > 100 µM | [16] > 100 µM | [3] > 100 µM | [4] > 100 µM | [5] > 100 µM | [6] > 100 µM | [7] > 100 µM | [9] > 100 µM | [10] > 100 µM | [11] > 100 µM | [12] > 100 µM | [13] > 100 µM | [17] > 100 µM

CC(=O)c1c(CO[N+](=O)[O-])[n+]([O-])c2ccccc2[n+]1[O-]
inactive: [14] 78.3 µM | [1] > 100 µM | [2] > 100 µM | [16] > 100 µM | [3] > 100 µM | [4] > 100 µM | [5] 70.6 µM | [6] 72.1 µM | [7] 35.7 µM | [10] 68.1 µM | [11] 33.8 µM | [12] > 100 µM | [13] > 100 µM | [17] 41.1 µM
